Data: patent US20100022556A1, “Therapeutic combinations comprising a long acting dihydropyridine calcium-channel blocker and a statin” (CHIESI FARMACEUTICI S.P.A., priority 2005, published 2010)

Assays:
[1] = Blood pressure in hypertensive, hypercholesterolemic patients (3x3 cross-over trial); assay type: in vivo, human; conditions: manidipine 20 mg, simvastatin 40 mg or fixed combination, end of 12 week treatment
Description: (§1) The aim of this study was to evaluate the effect of the manidipine-simvastatin combination on plasma tissue plasminogen activator (t-PA) and inhibitor (PAI-1) activity, on plasma intercellular adhesion molecule type-1 (ICAM-1) and on serum C-reactive protein (CRP) in hypertensive, hypercholesterolemic patients.
(§2) After 4 week placebo run-in period, 30 hypertensive hypercholesterolemic patients were randomized to a manidipine 20 mg or simvastatin 40 mg or a manidipine-simvastatin fixed combination treatment, according to 3×3 cross-over design; each treatment had 12 week duration.
(§3) The last day of the placebo run-in period and of each treatment period blood pressure was measured and a venous blood sample was taken (at the same hour in the morning) to evaluate plasma t-PA and PAI-1 activity, TC plasma, ICAM-1 and CRP.

[2] = test system: plasma tissue plasminogen activator (t-PA); assay: Plasma t-PA activity in hypertensive, hypercholesterolemic patients; assay type: in vivo, human; conditions: for t-PA: plasma activity, patients, end of 12 week treatment
Description: as §1, §2, §3

inhibitor (PAI-1) = assay: Plasma PAI-1 activity in hypertensive, hypercholesterolemic patients; assay type: in vivo, human; conditions: for change in PAI-1 activity vs placebo: 12 week treatment; for PAI-1: plasma activity, patients, end of 12 week treatment
Description: as §1, §2, §3

total cholesterol = assay: Total cholesterol (TC) in hypertensive, hypercholesterolemic patients; assay type: in vivo, human; conditions: for TC: patients, end of 12 week treatment
Description: as §3

[3] = test system: plasma intercellular adhesion molecule type-1 (ICAM-1); assay: Plasma ICAM-1 in hypertensive, hypercholesterolemic patients; assay type: in vivo, human; conditions: for change in ICAM-1 mean value vs placebo: 12 week treatment; for ICAM-1: plasma, patients, end of 12 week treatment
Description: as §1, §2, §3

[4] = test system: serum C-reactive protein (CRP); assay: Serum CRP in hypertensive, hypercholesterolemic patients; assay type: in vivo, human; conditions: end of 12 week treatment
Description: as §1, §2, §3

[5] = test system: perfused rat heart preparations submitted to ischemia-reperfusion; assay: Myocardial ischemia-reperfusion damage, perfused hearts from orally treated rats; assay type: in vivo, Male Wistar rats; conditions: oral gavage once a day for 5 days; manidipine 1 and 3 mg/kg, simvastatin 1 mg/kg, alone or combined
Description: The hearts were excised from rats orally treated for 5 consecutive days with manidipine and simvastatin alone or in combination. […] Data are means±SEM of 8 hearts per group. *P<0.05, **P<0.01, ***P<0.001 vs control; #P<0.01 vs simvastatin alone.
The aim of this study was to evaluate the protective effects of the manidipine-simvastatin combination against myocardial ischemia-reperfusion damage in the rat.
The study was performed according to a method described previously (Rossoni G et al Pharmacol Exp Ther. 2003 307(2), 633-9).
Male Wistar rats were randomly divided into six groups (n=6-8 rats per group). Manidipine (1 mg/kg and 3 mg/kg) simvastatin (1 mg/kg) were administered alone or in combination by oral gavage once a day for five consecutive days.
The following parameters were determined:
i) the left ventricular end-diastolic pressure (LVEDP) and the left ventricular developed pressure (LVDevP; peak left ventricular systolic pressure minus LVEDP);
ii) the activities of creatine kinase (CK) and lactate dehydrogenase (LDH) in the heart perfusate.
The data were expressed as mean±S.E.M (standard error of the mean).

[6] = test system: ischemic-reperfused myocardium; conditions: isolated rat hearts; simvastatin: normocholesterolemic rat hearts; cited from earlier work
[7] = change vs placebo, 12 week treatment

Compound	DBP [1]	SBP [1]	change in t-PA activity vs placebo [2, 7]	t-PA [2]	change in PAI-1 activity vs placebo (inhibitor (PAI-1))	PAI-1 (inhibitor (PAI-1))	TC (total cholesterol)	change in ICAM-1 mean value vs placebo [3]	ICAM-1 [3]	CRP [4]	rise in LVEDP during ischemia and reperfusion [5]	protection of ischemic-reperfused myocardium [6]	change in total cholesterol mean value vs placebo (total cholesterol; [7])
COC(=O)C1=C(C)NC(C)=C(C(=O)OCCN2CCN(C(c3ccccc3)c3ccccc3)CC2)C1c1cccc([N+](=O)[O-])c1 (racemic) [Manidipine, (±)-1,4-dihydro-2,6-dimethyl-4-(3-nitrophenyl)-3,5-pyridinedicarboxylic acid 2-[4-(diphenylmethyl)-1-piperazinyl]ethyl methyl ester]	84.1 ± 4.8 mmHg	140.5 ± 10.7 mmHg	+0.22 U/ml	0.71 ± 0.19 U/ml	did not affect	24.9 ± 12.6 U/ml	253.8 ± 29.6 mg/dL	-17.6 ng/mL	220.2 ± 29.8 ng/mL	0.34 ± 0.20 mg/dL	significantly reduced according to the dose used	relevant cardioprotection	–
CCC(C)(C)C(=O)O[C@H]1C[C@@H](C)C=C2C=C[C@H](C)[C@H](CC[C@@H]3C[C@@H](O)CC(=O)O3)[C@H]21 [Simvastatin, simvastatin]	98.2 ± 6.2 mmHg	155.4 ± 11.9 mmHg	–	0.51 ± 0.14 U/ml	−8.5 U/ml	16.1 ± 7.3 U/ml	202.2 ± 26.4 mg/dL	-30.4 ng/mL	207.4 ± 26 ng/mL	0.16 ± 0.12 mg/dL	–	–	-52.7 mg/dL
COC(=O)C1=C(C)NC(C)=C(C(=O)OC2CCCN(Cc3ccccc3)C2)C1c1cccc([N+](=O)[O-])c1 (centres unmarked) [benidipine]	–	–	–	–	–	–	–	–	–	–	–	relevant cardioprotection	–
